Measured values from US5831001A, “Treatment of herpesvirus infection” (priority 1995, dated 1998).

How the values were obtained:
HSV = assay: plaque reduction assay, inhibition of HSV replication; type: cell-based; settings: for Virus titer: pretreated Veto cell monolayers, plaques counted after 2 to 3 days
Experimental: Selected compounds were first formulated as 10 mM stocks in water for in vitro and call culture procedures. Then stocks are then diluted into buffers used for specific assays, or into cell culture media. For animal studies peptides are diluted into phosphate buffer saline,
The following procedures were then used to determine inhibitory effects of compounds on the replication of HSV. First, confluent monolayers of Veto cells (continuous passage cell line derived from African Green Monkeys) in 24 well cell culture plates were treated with specified concentrations of peptide for 25 hours. This was accomplished by diluting the stock peptide solution in growth medium used to overlay the monolayers, i.e. growth medium containing 10% fetal bovine serum and 10 ug/ml gentamicin in Dulbecco's MEM (DMEM).
Virus was then allowed to adsorb for 1 hour at 37° C. The virus inoculum was removed and the monolayers are overlayed with DMEM containing 2% FBS, 10 ug/ml gentamicin and specified concentration of peptide. Virus was next allowed to replicate for 2 to 3 days until the plaques were judged to be well developed, and then the monolayers were fixed and stained with a solution of 1% crystal violet in 1% formaldehyde, 70% ethanol. Finally, plaques (each representing a single viable virion) were counted and checked microscopically.

Compound: CC(=O)N[C@H](CCCNC(=N)N)C(=O)N[C@H](CCCNC(=N)N)C(=O)N[C@H](CCCNC(=N)N)C(=O)N[C@H](CCCNC(=N)N)C(=O)N[C@H](CCCNC(=N)N)C(=O)N[C@H](CCCNC(=N)N)C(=O)N[C@H](CCCNC(=N)N)C(=O)N[C@H](CCCNC(=N)N)C(=O)N[C@H](CCCNC(=N)N)C(N)=O [compound 4C, acetyl-[D-Arg]9 -NH2]
- inhibition of host cell replication (Veto cells): no apparent inhibition
- inhibition of viral replication (HSV; at the concentration tested (5uM)): ≥ 95%
- Virus titer (HSV; peptide concentration 0.5 uM): 30,000 pfu/ml
- Virus titer (HSV; peptide concentration 5.0 uM): 11,000 pfu/ml
